# Counter-ions that a name gives are not always drawn.
# How the values were obtained:
# [1] = target: T1, recombinant human baculovirus-expressed GST-tagged FASN (Homo sapiens, UniProt P49327); test: FASN enzyme activity assay, fluorescence-based detection of CoA with CPM; type: biochemical; conditions: 5 nM FASN, 150 μM NADPH, 10 μM acetyl-CoA, 25 μM malonyl-CoA, 90 minutes incubation; read-out: IC50 data for Additional Compounds of Formulae I-V(a): Activity
# T1 construct: GST
# Procedure, shortened: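 Human GST-tagged FASN, baculovirus-expressed (5 nM), in 50 mM HEPES pH 7.5 with 150 μM NADPH, 10 μM acetyl-CoA, 25 μM malonyl-CoA, 0.5% DMSO; malonyl-CoA-started, 90 min. Released CoA detected with CPM (50 μM dilution), 30 min, fluorescence ex 390/em 530. IC50 from variable-slope sigmoidal fit of % inhibition versus log concentration.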
# T1 sequence (P49327 whole entry): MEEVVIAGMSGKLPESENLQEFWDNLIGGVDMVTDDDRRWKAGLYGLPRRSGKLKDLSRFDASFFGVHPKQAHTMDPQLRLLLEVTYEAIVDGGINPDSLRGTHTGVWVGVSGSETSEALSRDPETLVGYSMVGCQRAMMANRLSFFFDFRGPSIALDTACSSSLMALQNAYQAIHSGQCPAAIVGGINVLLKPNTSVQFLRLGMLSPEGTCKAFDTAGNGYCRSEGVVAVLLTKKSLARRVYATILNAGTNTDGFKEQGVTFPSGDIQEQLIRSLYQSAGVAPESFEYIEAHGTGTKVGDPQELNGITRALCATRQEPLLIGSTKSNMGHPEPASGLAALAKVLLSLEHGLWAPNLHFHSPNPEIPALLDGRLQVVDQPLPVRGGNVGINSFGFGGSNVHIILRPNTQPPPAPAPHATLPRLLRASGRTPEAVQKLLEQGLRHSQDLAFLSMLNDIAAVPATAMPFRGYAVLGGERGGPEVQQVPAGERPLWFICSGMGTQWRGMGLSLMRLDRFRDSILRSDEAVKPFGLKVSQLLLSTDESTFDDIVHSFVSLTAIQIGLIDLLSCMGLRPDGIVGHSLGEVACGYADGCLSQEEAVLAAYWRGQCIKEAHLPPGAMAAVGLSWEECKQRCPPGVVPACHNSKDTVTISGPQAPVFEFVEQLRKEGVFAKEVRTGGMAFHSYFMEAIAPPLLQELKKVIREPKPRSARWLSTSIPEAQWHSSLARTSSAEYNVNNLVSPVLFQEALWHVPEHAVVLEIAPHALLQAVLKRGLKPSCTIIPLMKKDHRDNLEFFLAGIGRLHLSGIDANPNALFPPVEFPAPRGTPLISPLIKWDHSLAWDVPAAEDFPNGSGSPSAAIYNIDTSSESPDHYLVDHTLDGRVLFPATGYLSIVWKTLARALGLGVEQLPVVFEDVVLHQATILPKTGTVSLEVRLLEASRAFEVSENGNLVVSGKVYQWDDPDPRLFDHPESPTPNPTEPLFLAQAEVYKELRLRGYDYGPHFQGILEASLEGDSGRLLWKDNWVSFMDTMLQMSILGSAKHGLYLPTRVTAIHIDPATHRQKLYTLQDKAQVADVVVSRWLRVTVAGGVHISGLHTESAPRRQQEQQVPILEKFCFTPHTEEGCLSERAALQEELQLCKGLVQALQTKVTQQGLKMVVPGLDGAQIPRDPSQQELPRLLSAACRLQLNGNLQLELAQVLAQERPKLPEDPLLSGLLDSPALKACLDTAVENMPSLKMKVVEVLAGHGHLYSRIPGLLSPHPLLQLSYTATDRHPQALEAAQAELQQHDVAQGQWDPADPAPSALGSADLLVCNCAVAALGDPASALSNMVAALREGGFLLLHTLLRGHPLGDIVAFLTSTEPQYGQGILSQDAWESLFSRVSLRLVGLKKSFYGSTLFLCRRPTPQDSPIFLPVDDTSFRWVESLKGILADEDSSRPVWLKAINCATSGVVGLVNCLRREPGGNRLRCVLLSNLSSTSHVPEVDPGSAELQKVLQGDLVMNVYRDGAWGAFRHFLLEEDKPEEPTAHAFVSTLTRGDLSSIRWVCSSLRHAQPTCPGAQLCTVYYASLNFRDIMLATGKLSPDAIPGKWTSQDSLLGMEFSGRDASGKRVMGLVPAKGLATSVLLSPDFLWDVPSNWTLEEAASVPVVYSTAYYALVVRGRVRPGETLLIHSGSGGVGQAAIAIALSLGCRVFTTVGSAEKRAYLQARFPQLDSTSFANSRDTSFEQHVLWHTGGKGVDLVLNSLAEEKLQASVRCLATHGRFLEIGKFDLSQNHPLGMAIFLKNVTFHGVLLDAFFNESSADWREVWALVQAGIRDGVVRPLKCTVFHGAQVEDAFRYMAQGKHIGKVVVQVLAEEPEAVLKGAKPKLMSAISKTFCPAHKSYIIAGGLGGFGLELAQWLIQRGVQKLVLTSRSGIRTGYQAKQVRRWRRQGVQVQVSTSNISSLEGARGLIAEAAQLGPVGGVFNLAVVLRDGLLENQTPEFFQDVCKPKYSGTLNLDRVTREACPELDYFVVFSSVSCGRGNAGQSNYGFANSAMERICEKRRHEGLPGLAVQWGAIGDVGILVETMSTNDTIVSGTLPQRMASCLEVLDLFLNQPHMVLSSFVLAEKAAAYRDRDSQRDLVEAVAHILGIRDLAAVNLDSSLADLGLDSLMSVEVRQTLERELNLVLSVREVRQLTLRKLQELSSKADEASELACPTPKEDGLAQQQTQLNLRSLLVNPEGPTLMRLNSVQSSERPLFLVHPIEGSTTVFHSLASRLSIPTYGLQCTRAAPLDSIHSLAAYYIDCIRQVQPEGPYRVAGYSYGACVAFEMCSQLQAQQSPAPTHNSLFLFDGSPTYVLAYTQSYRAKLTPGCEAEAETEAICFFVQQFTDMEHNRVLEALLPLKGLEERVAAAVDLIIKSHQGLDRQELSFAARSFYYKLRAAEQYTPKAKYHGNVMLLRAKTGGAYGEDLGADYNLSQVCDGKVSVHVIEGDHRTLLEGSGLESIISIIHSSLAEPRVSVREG
Structure (SMILES),IC50 [1] [µM],melting point [°C]
"CCNC(=O)N1CCC(Oc2ccc(-c3ccc4c(C)nccc4c3)cc2)CC1 [Example 578, N-Ethyl-4-[4-(1-methyl-6-isoquinolyl)phenoxy]piperidine-1-carboxamide]",1 to 10,211
"CCNC(=O)N1CCC(Oc2ccc(-c3ccc4nccn4c3Cl)cc2)CC1 [Example 564, 4-[4-(5-Chloroimidazo[1,2-a]pyridin-6-yl)phenoxy]-N-ethyl-piperidine-1-carboxamide]",1 to 10,189 to 193
"Cc1nccc2cc(-c3ccc(OC4CCN(C(=O)NOC(C)C)CC4)cc3)ccc12 [Example 583, N-Isopropoxy-4-[4-(1-methyl-6-isoquinolyl)phenoxy]piperidine-1-carboxamide]",0.001 to 0.099,189
"CCCONC(=O)N1CCC(Oc2ccc(-c3ccc4c(C)nccc4c3)cc2)CC1 [Example 584, 4-[4-(1-Methyl-6-isoquinolyl)phenoxy]-N-propoxypiperidine-1-carboxamide]",0.001 to 0.099,165
"COCCNC(=O)N1CCC(Oc2ccc(-c3ccc4nccn4c3Cl)cc2)CC1 [Example 567, 4-[4-(5-Chloroimidazo[1,2-a]pyridin-6-yl)phenoxy]-N-(2-methoxyethyl)-piperidine-1-carboxamide]",0.1 to 0.999,135 to 138
"Cc1nccc2cc(-c3ccc(OC4CCN(C(=O)NCC5CC5)CC4)cc3)ccc12 [Example 582, N-(Cyclopropylmethyl)-4-[4-(1-methyl-6-isoquinolyl)phenoxy]piperidine-1-carboxamide]",1 to 10,188
"CC(C)CONC(=O)N1CCC(Oc2ccc(-c3ccc4nccn4c3Cl)cc2)CC1 [Example 571, 4-[4-(5-Chloroimidazo[1,2-a]pyridin-6-yl)phenoxy]-N-isobutoxy-piperidine-1-carboxamide]",1 to 10,157
"CCC(=O)N1CCC(Sc2ccc(-c3cnc4ccccc4c3)cc2)CC1 (as salt: HCl) [Example 518, 1-(4-((4-(Quinolin-3-yl)phenyl)thio)piperidin-1-yl)propan-1-one, HCl]",,70
"CCC(=O)N1CCC(Oc2ccc(-c3ccc4cccnc4c3)nc2)CC1 (as salt: HCl) [Example 144, 1-[4-(6-Quinolin-7-yl-pyridin-3-yloxy)-piperidin-1-yl]-propan-1-one, 2HCl]",,90 to 96
"CCC(=O)N1CCC(Sc2ccc(-c3ccc4cnccc4c3)cc2)CC1 (as salt: HCl) [Example 517, 1-(4-((4-(Isoquinolin-6-yl)phenyl)thio)piperidin-1-yl)propan-1-one, HCl]",,222
"CC(C)C(=O)N1CCC(Sc2ccc(-c3ccc4cnccc4c3)cc2)CC1 (as salt: HCl) [Example 521, 1-(4-((4-(Isoquinolin-6-yl)phenyl)thio)piperidin-1-yl)-2-methylpropan-1-one HCl]",,228
"CCC(=O)N1CCC(Sc2ccc(-c3cncc4ccccc34)cc2)CC1 (as salt: HCl) [Example 519, 1-(4-((4-(Isoquinolin-4-yl)phenyl)thio)piperidin-1-yl)propan-1-one, HCl]",,88
"CC(C)C(=O)N1CCC(Sc2ccc(-c3cnc4ccccc4c3)cc2)CC1 (as salt: HCl) [Example 522, 2-Methyl-1-(4-((4-(quinolin-3-yl)phenyl)thio)piperidin-1-yl)propan-1-one, HCl]",,130
"CCC(=O)N1CCC(Sc2ccc(-c3ccc4cccnc4c3)cc2)CC1 (as salt: HCl) [Example 516, 1-(4-((4-(quinolin-7-yl)phenyl)thio)piperidin-1-yl)propan-1-one, HCl]",,188
"CC(C)C(=O)N1CCC(Sc2ccc(-c3cncc4ccccc34)cc2)CC1 (as salt: HCl) [Example 523, 1-(4-((4-(Isoquinolin-4-yl)phenyl)thio)piperidin-1-yl)-2-methylpropan-1-one HCl]",,120
"CC(C)C(=O)N1CCC(Oc2ccc(-c3ccc4cccnc4c3)nc2)CC1 (as salt: HCl) [Example 145, 2-Methyl-1-[4-(6-quinolin-7-yl-pyridin-3-yloxy)-piperidin-1-yl]-propan-1-one, 2HCl]",,170 to 179
"CC(C)C(=O)N1CCC(Oc2ncc(-c3cnc4ccccc4c3)cn2)CC1 (as salt: HCl) [Example 138, 2-Methyl-1-[4-(5-quinolin-3-yl-pyrimidin-2-yloxy)-piperidin-1-yl]-propan-1-one, 2HCl]",,124 to 130
"CCC(=O)N1CCC(Oc2ccc(-c3ccc4cnccc4c3)nc2)CC1 (as salt: HCl) [Example 147, 1-[4-(6-Isoquinolin-6-yl-pyridin-3-yloxy)-piperidin-1-yl]-propan-1-one, 2HCl]",,236 to 245
CC(C)C(=O)N1CCC(Sc2ccc(-c3ccc4cccnc4c3)cc2)CC1 (as salt: HCl) [Example 520],,120

# The remaining lines, values ahead:
IC50 [1] [µM],melting point [°C],Structure (SMILES)
,230 to 234,"O=C(C1CC1)N1CCC(Oc2ccc(-c3cnc4ccccc4c3)nc2)CC1 (as salt: HCl) [Example 142, Cyclopropyl-[4-(6-quinolin-3-yl-pyridin-3-yloxy)-piperidin-1-yl]-methanone, 2HCl]"
,145 to 147,"O=C(C1CCCC1)N1CCC(Oc2ccc(-c3cnc4ccccc4c3)cc2)CC1 (as salt: HCl) [Example 102, Cyclopentyl-[4-(4-quinolin-3-yl-phenoxy)-piperidin-1-yl]-methanone, 2HCl]"
,170 to 175,"O=C(C1CC1)N1CCC(Oc2ccc(-c3ccc4cccnc4c3)nc2)CC1 (as salt: HCl) [Example 146, Cyclopropyl-[4-(6-quinolin-7-yl-pyridin-3-yloxy)-piperidin-1-yl]-methanone, 2HCl]"
,99 to 102,"CC(C)C(=O)N1CCC(Oc2ccc(-c3cnc4ccccc4c3)nc2)CC1 (as salt: HCl) [Example 141, 2-Methyl-1-[4-(6-quinolin-3-yl-pyridin-3-yloxy)-piperidin-1-yl]-propan-1-one, 2HCl]"
,164 to 166,"O=C(C1CCC1)N1CCC(Oc2ccc(-c3cnc4ccccc4c3)cc2)CC1 (as salt: HCl) [Example 101, Cyclobutyl-[4-(4-quinolin-3-yl-phenoxy)-piperidin-1-yl]-methanone,HCl]"
,150 to 153,"O=C(C1CC1)N1CCC(Oc2ncc(-c3cnc4ccccc4c3)cn2)CC1 (as salt: HCl) [Example 139, Cyclopropyl-[4-(5-quinolin-3-yl-pyrimidin-2-yloxy)-piperidin-1-yl]-methanone, 2HCl]"
,60,"CCC(=O)N1CC[C@H](Oc2ccc(-c3cnc4ccccc4c3)cc2)C1 (as salt: HCl) [Example 343, (S)-1-(3-(4-(Quinolin-3-yl)phenoxy)pyrrolidin-1-yl)propan-1-one, HCl]"
,51,"CCC(=O)N1CC[C@@H](Oc2ccc(-c3cnc4ccccc4c3)cc2)C1 (as salt: HCl) [Example 345, (R)-1-(3-(4-(quinolin-3-yl)phenoxy)pyrrolidin-1-yl)propan-1-one, HCl]"
,170 to 173,"O=C(C1CC1)N1CCC(Oc2ccc(-c3cnc4ccccc4c3)cc2)CC1 (as salt: HCl) [Example 100, Cyclopropyl-[4-(4-quinolin-3-yl-phenoxy)-piperidin-1-yl]-methanone,HCl]"
